ChEMBL document CHEMBL5614421, “Structure-activity relationship study of Pseudellone C as anti-glioma agents by targeting TNF/TNFR signaling pathway” (Eur J Med Chem, 2024)

Legend:
U-87 MG [1] = experiment: Induction of apoptosis in human U-87 MG cells assessed as late apoptotic cells at 20 uM incubated for 48 hrs by Annexin V-APC/7-AAD staining based flow cytometric analysis (reference value: 3.44 %); assay type: functional, U-87MG ATCC
LN-229 [2] = experiment: Induction of apoptosis in human LN-229 cells at 20 uM incubated for 24 hrs in presence of R7050 by Annexin V-APC/7-AAD staining based flow cytometric analysis relative to control; assay type: functional
LN-229 [3] = experiment: Induction of apoptosis in human LN-229 cells assessed as necrotic cells at 20 uM incubated for 24 hrs by Annexin V-APC/7-AAD staining based flow cytometric analysis (reference value: 0.56 %); assay type: functional
LN-229 [4] = experiment: Induction of apoptosis in human LN-229 cells assessed as late apoptotic cells at 20 uM incubated for 24 hrs by Annexin V-APC/7-AAD staining based flow cytometric analysis (reference value: 3.56 %); assay type: functional
LN-229 [5] = experiment: Induction of apoptosis in human LN-229 cells at 20 uM incubated for 24 hrs by Annexin V-APC/7-AAD staining based flow cytometric analysis (reference value: 4.47 +/- 1.09 %); assay type: functional
LN-229 [6] = experiment: Induction of apoptosis in human LN-229 cells assessed as late apoptotic cells at 20 uM incubated for 24 hrs by Annexin V-APC/7-AAD staining based flow cytometric analysis (reference value: 5.1 %); assay type: functional
U-87 MG [7] = experiment: Induction of apoptosis in human U-87 MG cells assessed as late apoptotic cells at 5 uM incubated for 24 hrs by Annexin V-APC/7-AAD staining based flow cytometric analysis (reference value: 4.22 %); assay type: functional, U-87MG ATCC
LN-229 [8] = experiment: Induction of apoptosis in human LN-229 cells assessed as necrotic cells at 5 uM incubated for 24 hrs by Annexin V-APC/7-AAD staining based flow cytometric analysis (reference value: 0.56 %); assay type: functional
LN-229 [9] = experiment: Induction of apoptosis in human LN-229 cells assessed as late apoptotic cells at 20 uM incubated for 24 hrs in presence of R7050 by Annexin V-APC/7-AAD staining based flow cytometric analysis (reference value: 4.86 %); assay type: functional
U-87 MG [10] = experiment: Antiproliferative activity against human U-87 MG cells assessed as inhibition of cell growth incubated for 68 hrs by CCK-8 assay; assay type: functional, cell-based, U-87MG ATCC
U-87 MG [11] = experiment: Induction of apoptosis in human U-87 MG cells assessed as viable cells at 20 uM incubated for 24 hrs in presence of R7050 by Annexin V-APC/7-AAD staining based flow cytometric analysis (reference value: 85 %); assay type: functional, U-87MG ATCC; conditions: read-out: Activity
U-87 MG [12] = experiment: Induction of apoptosis in human U-87 MG cells assessed as early apoptotic cells at 20 uM incubated for 24 hrs by Annexin V-APC/7-AAD staining based flow cytometric analysis (reference value: 0.94 %); assay type: functional, U-87MG ATCC
U-87 MG [13] = experiment: Induction of apoptosis in human U-87 MG cells assessed as late apoptotic cells at 10 uM incubated for 24 hrs by Annexin V-APC/7-AAD staining based flow cytometric analysis (reference value: 4.22 %); assay type: functional, U-87MG ATCC
LN-229 [14] = experiment: Induction of apoptosis in human LN-229 cells assessed as late apoptotic cells at 20 uM incubated for 24 hrs by Annexin V-APC/7-AAD staining based flow cytometric analysis (reference value: 4.86 %); assay type: functional
U-87 MG [15] = experiment: Induction of apoptosis in human U-87 MG cells assessed as viable cells at 10 uM incubated for 24 hrs by Annexin V-APC/7-AAD staining based flow cytometric analysis (reference value: 94 %); assay type: functional, U-87MG ATCC; conditions: read-out: Activity
U-87 MG [16] = experiment: Induction of apoptosis in human U-87 MG cells assessed as late apoptotic cells at 20 uM incubated for 24 hrs by Annexin V-APC/7-AAD staining based flow cytometric analysis (reference value: 4.22 %); assay type: functional, U-87MG ATCC
LN-229 [17] = experiment: Induction of apoptosis in human LN-229 cells at 20 uM incubated for 24 hrs by Annexin V-APC/7-AAD staining based flow cytometric analysis relative to control; assay type: functional
U-87 MG [18] = experiment: Induction of apoptosis in human U-87 MG cells assessed as viable cells at 20 uM incubated for 48 hrs by Annexin V-APC/7-AAD staining based flow cytometric analysis (reference value: 94.6 %); assay type: functional, U-87MG ATCC; conditions: read-out: Activity
U-87 MG [19] = experiment: Induction of apoptosis in human U-87 MG cells assessed as upregulation of cleaved caspase-3 expression incubated for 24 hrs by Western blot analysis; assay type: functional, cell-based; conditions: U-87MG ATCC
U-87 MG [20] = experiment: Induction of apoptosis in human U-87 MG cells assessed as early apoptotic cells at 20 uM incubated for 24 hrs in presence of R7050 by Annexin V-APC/7-AAD staining based flow cytometric analysis (reference value: 3.44 %); assay type: functional, U-87MG ATCC
LN-229 [21] = experiment: Induction of apoptosis in human LN-229 cells assessed as early apoptotic cells at 20 uM incubated for 24 hrs in presence of R7050 by Annexin V-APC/7-AAD staining based flow cytometric analysis (reference value: 0.91 %); assay type: functional
U-87 MG [22] = experiment: Induction of apoptosis in human U-87 MG cells assessed as viable cells at 5 uM incubated for 24 hrs by Annexin V-APC/7-AAD staining based flow cytometric analysis (reference value: 94 %); assay type: functional, U-87MG ATCC; conditions: read-out: Activity
U-87 MG [23] = experiment: Induction of apoptosis in human U-87 MG cells assessed as early apoptotic cells at 20 uM incubated for 48 hrs by Annexin V-APC/7-AAD staining based flow cytometric analysis (reference value: 0.94 %); assay type: functional, U-87MG ATCC
U-87 MG [24] = experiment: Induction of apoptosis in human U-87 MG cells assessed as necrotic cells at 20 uM incubated for 24 hrs by Annexin V-APC/7-AAD staining based flow cytometric analysis (reference value: 3.85 %); assay type: functional, U-87MG ATCC
LN-229 [25] = experiment: Induction of apoptosis in human LN-229 cells assessed as viable cells at 20 uM incubated for 24 hrs in presence of R7050 by Annexin V-APC/7-AAD staining based flow cytometric analysis (reference value: 92.3 %); assay type: functional; conditions: read-out: Activity
U-87 MG [26] = experiment: Induction of apoptosis in human U-87 MG cells assessed as viable cells at 20 uM incubated for 24 hrs by Annexin V-APC/7-AAD staining based flow cytometric analysis (reference value: 85 %); assay type: functional, U-87MG ATCC; conditions: read-out: Activity
LN-229 [27] = experiment: Induction of apoptosis in human LN-229 cells assessed as late apoptotic cells at 5 uM incubated for 24 hrs by Annexin V-APC/7-AAD staining based flow cytometric analysis (reference value: 3.56 %); assay type: functional
U-87 MG [28] = experiment: Induction of apoptosis in human U-87 MG cells assessed as early apoptotic cells at 10 uM incubated for 24 hrs by Annexin V-APC/7-AAD staining based flow cytometric analysis (reference value: 1.59 %); assay type: functional, U-87MG ATCC
LN-229 [29] = experiment: Induction of apoptosis in human LN-229 cells assessed as late apoptotic cells at 10 uM incubated for 24 hrs by Annexin V-APC/7-AAD staining based flow cytometric analysis (reference value: 3.56 %); assay type: functional
LN-229 [30] = experiment: Induction of apoptosis in human LN-229 cells assessed as necrotic cells at 10 uM incubated for 24 hrs by Annexin V-APC/7-AAD staining based flow cytometric analysis (reference value: 0.56 %); assay type: functional
U-87 MG [31] = experiment: Induction of apoptosis in human U-87 MG cells at 20 uM incubated for 24 hrs by Annexin V-APC/7-AAD staining based flow cytometric analysis (reference value: 5.67 +/- 1.49 %); assay type: functional, U-87MG ATCC

IC50 (U-87 MG [10]): 8.2 µM
Structure (SMILES): CCCCCCCNC(=O)[C@H](Cc1c[nH]c2ccccc12)NC(=O)C(C)(c1c[nH]c2ccccc12)c1c[nH]c2ccccc12
Activity (U-87 MG [1]): 11.6% | Activity (LN-229 [2]): 22.79% | Activity (LN-229 [3]): 1.42% | Activity (LN-229 [4]): 4.99% | Activity (LN-229 [5]): 21.2% | Activity (LN-229 [6]): 4.38% | Activity (U-87 MG [7]): 4.92% | Activity (LN-229 [8]): 0.46% | Activity (LN-229 [9]): 5.88% | viability at 20 µM (U-87 MG [11]): 87.6% | Activity (U-87 MG [12]): 2.6% | Activity (U-87 MG [13]): 6.16% | Activity (LN-229 [14]): 7.62% | viability at 10 µM (U-87 MG [15]): 89.2% | Activity (U-87 MG [16]): 11.6% | Activity (LN-229 [17]): 31.44% | viability at 20 µM (U-87 MG [18]): 78.7% | Activity (U-87 MG [19]): Dose-Dependent Effect | Activity (U-87 MG [20]): 8.66% | Activity (LN-229 [21]): 1.48% | viability at 5 µM (U-87 MG [22]): 92.9% | Activity (U-87 MG [23]): 5.06% | Activity (U-87 MG [24]): 8.66% | viability at 20 µM (LN-229 [25]): 91.4% | viability at 20 µM (U-87 MG [26]): 65.1% | Activity (LN-229 [27]): 3.7% | Activity (U-87 MG [28]): 4.46% | Activity (LN-229 [29]): 6.38% | Activity (LN-229 [30]): 1.95% | Activity (U-87 MG [31]): 13.95%
